Reference: patent US20160355465A1, “NOVEL MODIFIED CURCUMINS AND THEIR USES” (THE RESEARCH FOUNDATION OF STATE UNIVERSITY OF NEW YORK, priority 2011, published 2016)
Where two headings read alike, the source gives them in different places.

Experiments:
[1] = target: T1, MMP-1 (Homo sapiens, UniProt P03956); assay: fluorimetric assay of MMP activity; type: biochemical; conditions: synthetic fluorescent peptide substrate Mca-Lys-Pro-Leu-Gly-Leu-Dpa-Ala-Arg-NH2
T1 sequence (P03956 100-469): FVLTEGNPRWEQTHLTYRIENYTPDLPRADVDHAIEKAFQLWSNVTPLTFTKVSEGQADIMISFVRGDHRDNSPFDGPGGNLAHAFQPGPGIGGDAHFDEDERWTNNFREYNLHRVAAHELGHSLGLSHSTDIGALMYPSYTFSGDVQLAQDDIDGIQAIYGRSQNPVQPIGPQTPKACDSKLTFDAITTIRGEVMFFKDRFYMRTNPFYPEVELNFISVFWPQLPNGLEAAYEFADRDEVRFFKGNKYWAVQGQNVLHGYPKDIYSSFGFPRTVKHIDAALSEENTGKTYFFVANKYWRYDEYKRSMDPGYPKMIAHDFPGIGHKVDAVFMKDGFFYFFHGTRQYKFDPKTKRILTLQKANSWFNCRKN

[2] = target: MMP-8 (Homo sapiens, UniProt P22894); assay: fluorimetric assay of MMP activity; type: biochemical; conditions: synthetic fluorescent peptide substrate Mca-Lys-Pro-Leu-Gly-Leu-Dpa-Ala-Arg-NH2
Chain of MMP-8 (P22894 101-467): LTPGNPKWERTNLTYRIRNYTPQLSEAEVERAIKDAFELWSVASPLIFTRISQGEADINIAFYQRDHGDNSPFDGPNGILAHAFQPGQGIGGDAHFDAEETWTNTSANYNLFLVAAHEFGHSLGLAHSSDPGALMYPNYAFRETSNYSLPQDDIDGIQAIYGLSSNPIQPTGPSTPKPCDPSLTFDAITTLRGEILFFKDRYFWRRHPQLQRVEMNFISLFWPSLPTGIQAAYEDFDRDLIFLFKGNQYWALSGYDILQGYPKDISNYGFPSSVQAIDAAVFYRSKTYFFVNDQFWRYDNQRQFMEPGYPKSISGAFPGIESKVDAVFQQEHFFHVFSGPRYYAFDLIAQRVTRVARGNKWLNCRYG

[3] = target: T2, MMP-2 (Homo sapiens, UniProt P08253); assay: fluorimetric assay of MMP activity; type: biochemical
T2 sequence (P08253 110-660): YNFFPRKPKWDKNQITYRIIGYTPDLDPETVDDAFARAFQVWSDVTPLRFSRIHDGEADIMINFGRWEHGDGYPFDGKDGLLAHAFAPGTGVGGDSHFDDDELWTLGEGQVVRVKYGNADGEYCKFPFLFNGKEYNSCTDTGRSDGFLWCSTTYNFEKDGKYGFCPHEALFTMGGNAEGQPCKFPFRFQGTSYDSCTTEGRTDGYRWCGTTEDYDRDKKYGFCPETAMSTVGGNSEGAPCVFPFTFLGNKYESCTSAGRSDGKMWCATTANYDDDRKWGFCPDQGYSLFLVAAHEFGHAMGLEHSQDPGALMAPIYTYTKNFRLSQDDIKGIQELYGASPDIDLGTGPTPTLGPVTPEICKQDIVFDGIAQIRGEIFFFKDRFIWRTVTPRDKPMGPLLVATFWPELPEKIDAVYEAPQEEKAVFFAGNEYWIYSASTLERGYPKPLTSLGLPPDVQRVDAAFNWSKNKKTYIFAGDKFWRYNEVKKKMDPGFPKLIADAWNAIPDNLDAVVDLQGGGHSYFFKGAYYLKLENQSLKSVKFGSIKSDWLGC

[4] = target: MMP-9 (Homo sapiens, UniProt P14780); assay: fluorimetric assay of MMP activity; type: biochemical; conditions: synthetic fluorescent peptide substrate Mca-Lys-Pro-Leu-Gly-Leu-Dpa-Ala-Arg-NH2
Chain of MMP-9 (P14780 94-707): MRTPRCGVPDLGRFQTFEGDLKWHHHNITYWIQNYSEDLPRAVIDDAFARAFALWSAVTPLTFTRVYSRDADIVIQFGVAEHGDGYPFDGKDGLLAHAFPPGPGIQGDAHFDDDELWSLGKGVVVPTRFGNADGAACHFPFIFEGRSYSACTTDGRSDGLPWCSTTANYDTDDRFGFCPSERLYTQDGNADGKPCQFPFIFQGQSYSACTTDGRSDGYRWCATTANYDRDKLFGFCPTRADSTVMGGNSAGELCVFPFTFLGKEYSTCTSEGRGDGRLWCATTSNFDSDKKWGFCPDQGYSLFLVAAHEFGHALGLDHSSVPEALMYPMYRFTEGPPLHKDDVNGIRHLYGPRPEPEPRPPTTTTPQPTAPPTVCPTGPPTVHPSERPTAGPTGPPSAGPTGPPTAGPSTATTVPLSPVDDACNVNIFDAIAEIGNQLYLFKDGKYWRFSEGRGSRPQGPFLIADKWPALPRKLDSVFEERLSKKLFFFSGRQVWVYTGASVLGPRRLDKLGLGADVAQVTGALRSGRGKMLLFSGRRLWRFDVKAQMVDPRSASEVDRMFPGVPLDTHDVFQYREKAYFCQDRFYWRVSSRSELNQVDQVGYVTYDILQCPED

[5] = target: MMP-3 (Homo sapiens, UniProt P08254); assay: fluorimetric assay of MMP activity; type: biochemical; conditions: synthetic fluorescent peptide substrate Mca-Lys-Pro-Leu-Gly-Leu-Dpa-Ala-Arg-NH2
Chain of MMP-3 (P08254 100-477): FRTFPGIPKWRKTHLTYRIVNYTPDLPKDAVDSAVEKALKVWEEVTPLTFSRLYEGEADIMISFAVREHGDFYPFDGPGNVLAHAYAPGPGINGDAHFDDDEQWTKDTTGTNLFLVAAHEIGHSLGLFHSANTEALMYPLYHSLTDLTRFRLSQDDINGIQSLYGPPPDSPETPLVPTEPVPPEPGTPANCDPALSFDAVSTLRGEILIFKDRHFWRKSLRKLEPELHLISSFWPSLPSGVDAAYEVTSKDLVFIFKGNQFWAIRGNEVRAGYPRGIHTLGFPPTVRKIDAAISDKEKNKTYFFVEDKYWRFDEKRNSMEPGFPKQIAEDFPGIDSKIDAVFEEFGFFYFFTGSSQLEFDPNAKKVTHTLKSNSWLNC

[6] = target: T3, MMP-7 (Homo sapiens, UniProt P09237); assay: fluorimetric assay of MMP activity; type: biochemical; conditions: synthetic fluorescent peptide substrate Mca-Lys-Pro-Leu-Gly-Leu-Dpa-Ala-Arg-NH2
T3 sequence (P09237 95-267): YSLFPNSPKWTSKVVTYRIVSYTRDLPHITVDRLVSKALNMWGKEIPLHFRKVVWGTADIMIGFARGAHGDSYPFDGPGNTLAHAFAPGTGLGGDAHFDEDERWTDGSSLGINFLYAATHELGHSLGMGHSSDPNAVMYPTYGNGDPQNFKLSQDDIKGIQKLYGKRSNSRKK

[7] = target: MMP-12 (Homo sapiens, UniProt P39900); assay: fluorimetric assay of MMP activity; type: biochemical; conditions: synthetic fluorescent peptide substrate Mca-Lys-Pro-Leu-Gly-Leu-Dpa-Ala-Arg-NH2
Chain of MMP-12 (P39900 106-470): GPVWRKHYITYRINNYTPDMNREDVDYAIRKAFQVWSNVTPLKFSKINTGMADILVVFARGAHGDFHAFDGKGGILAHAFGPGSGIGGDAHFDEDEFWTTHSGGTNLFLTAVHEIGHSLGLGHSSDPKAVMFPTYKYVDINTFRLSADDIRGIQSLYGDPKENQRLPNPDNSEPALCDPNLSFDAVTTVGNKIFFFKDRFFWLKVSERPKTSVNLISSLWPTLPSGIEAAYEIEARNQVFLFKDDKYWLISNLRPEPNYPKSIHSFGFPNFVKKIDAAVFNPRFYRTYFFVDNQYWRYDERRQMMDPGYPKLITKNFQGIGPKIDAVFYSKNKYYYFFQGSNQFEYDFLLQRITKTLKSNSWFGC

[8] = target: MMP-14 (Homo sapiens, UniProt P50281); assay: fluorimetric assay of MMP activity; type: biochemical; conditions: synthetic fluorescent peptide substrate Mca-Lys-Pro-Leu-Gly-Leu-Dpa-Ala-Arg-NH2
[9] = system: MMPs 1, 2, 3, 7, 8, 9, 12, 13 and 14; assay: activity against a battery of MMPs (summary in words); type: biochemical, human
[10] = toxicity / tolerability in diabetic rats; type: in vivo; conditions: at elevated levels
Method: The following five experimental groups (n=3 rats per group) were established: Non-diabetic control rats (NDC) treated by daily application of white petrolatum jelly (“vehicle”) for 7 days, diabetic rats (D group) treated daily with vehicle alone; diabetics treated by daily topical application of either a 1% (D+1%) or a 3% (D+3%) suspension of Compound 4 in the vehicle; and diabetics treated systemically by daily oral intubation of a 1 ml suspension of Compound 4 (in carboxymethylcellulose) at a dose of 30 mg/kg over the 7-day treatment protocol (D+30 mg/kg). At the end of this time period, the circular wounds were clinically assessed by measuring diameter of the wound in millimeters, blood samples were collected, the rats were sacrificed, and skin samples collected for histological/histochemical, and biochemical assessment as described below. • 1) On day 7 after inducing wound healing, the animals were anesthetized and blood samples collected for blood glucose (one Touch Ultra Glucometer; Johnson & Johnson, New Brunswick, N.J.) and Hemoglobin A1c (A1c Now+; Bayer Health Care, Sunnyvale, Calif.) measurements. • 2) Photographs were taken for clinical observations to assess wound closure. The % reduction of the wound surface was calculated by measuring the diameter (in millimeters) of each wound before and after the treatment protocol. • 3) Wound tissues on day 7 were excised from 3 sites per rat and pooled for biochemical analysis. […] The supernates were then dialyzed against the Tris-HCl, NaCl, CaCl2 buffer, and the proteinases partially purified by ammonium sulfate precipitation and examined for levels of MMP-2 (72 kD gelatinse) and MMP-9 (92 kD gelatinase) by gelatin zymography using denatured type I collagen (gelatin) as the substrate (6). • 4) The remaining wounds were assessed histologically & histochemically by Dr. Steve McClain (McClain Labs, Smithtown, N.Y.) as follows: Biopsies of each wound site were taken and included both the wound tissue and surrounding non-wounded tissue. […]

[11] = system: collagen in wound tissue; assay: collagen fractions (hydroxyproline) in wound tissue of diabetic rats; type: in vivo, rat; conditions: wound tissue day 6
Description: Biochemical measurements were made on wound tissue 6 days after creating the standardized 6 mm diameter wounds in the various groups of rats including: (1) non-diabetic controls (NDC); (2) Diabetic (DM) rats treated topically with 0.25% curcumin; (3) DM treated with 1% curcumin; (4) DM treated with 0.25% Compound 4, and (5) DM rats treated with 1% Compound 4. The wound tissues from these five different groups were then hydrolyzed (after extraction; see below) to degrade the collagen to individual amino acids, and the amino acid unique to collagen, hydroxyproline, was measured by a commercial colorimetric assay. Prior to hydrolysis, the wound tissues were extracted (at 4° C. to maintain the triple-helical conformation of the collagen molecules) to obtain first the salt-soluble fraction, then the acid-soluble fraction, leaving the insoluble fraction.

[12] = blood glucose of the rats of the collagen experiment; type: in vivo, rat; conditions: diabetic rats
[13] = target: MMP-13 (Homo sapiens, UniProt P45452); assay: fluorimetric assay of MMP activity; type: biochemical; conditions: synthetic fluorescent peptide substrate Mca-Lys-Pro-Leu-Gly-Leu-Dpa-Ala-Arg-NH2
[14] = synthetic fluorescent peptide substrate Mca-Lys-Pro-Leu-Gly-Leu-Dpa-Ala-Arg-NH2, read-out: IC50 MMP-2

SMILES | IC50 [1] [µM] | IC50 [2] [µM] | IC50 [3, 14] [µM] | IC50 [4] [µM] | IC50 [5] [µM] | IC50 [6] [µM] | IC50 [7] [µM] | IC50 [8] [µM] | anti-MMP activity (in words) [9] | toxicity [10] | IC50 [3] [µM] | Collagen Fractions (%) Acid-soluble ([11]; 0.25% topical) [%] | Collagen Fractions (%) Insoluble ([11]; 0.25% topical) [%] | Collagen Fractions (%) Salt-soluble ([11]; 0.25% topical) [%] | Collagen Fractions (%) Acid-soluble ([11]; 1% topical) [%] | Collagen Fractions (%) Insoluble ([11]; 1% topical) [%] | Collagen Fractions (%) Salt-soluble ([11]; 1% topical) [%] | Blood Glucose ([12]; 0.25% topical) [mg/dL] | Blood Glucose ([12]; 1% topical) [mg/dL] | IC50 [13] [µM]
COc1cc(/C=C/C(=O)C(C(=O)/C=C/c2ccc(O)c(OC)c2)C(=O)Nc2ccccc2)ccc1O [Compound 3, 1,7-Bis(4-hydroxy-3-methoxyphenyl)-4-N-phenylaminocarbonylhepta-1E, 6E-dien-3,5-dione] | 68 ± 3.2 | 2.5 ± 0.3 | 6.3 ± 0.9 | 8.7 ± 0.7 | 5.3 ± 0.7 | 21.5 ± 1 | 4.5 ± 0.5 | 41.3 ± 4.9 | highly active | some toxicity | – | – | – | – | – | – | – | – | – | –
COc1cc(/C=C/C(=O)CC(=O)/C=C/c2ccc(O)c(OC)c2)ccc1O [Compound 1, 1,7-Bis(4-hydroxy-3-methoxyphenyl)hepta-1E,6E-dien-3,5-dione, reference compound] | – | – | – | 30 ± 2.9 | 4.7 ± 0.8 | 51.8 ± 2.5 | 2.6 ± 0.2 | 29.5 ± 3.2 | – | – | 5 ± 0.7 | 48.3 | 36.4 | 15.3 | 50.9 | 27.1 | 22.0 | 569 | 540 | –
COC(=O)C(C(=O)/C=C/c1ccc(O)c(OC)c1)C(=O)/C=C/c1ccc(O)c(OC)c1 [Compound 2, 1,7-Bis(4-hydroxy-3-methoxyphenyl)-4-methoxycarbonylhepta-1E,6E-dien-3,5-dione] | 74 ± 3.5 | 30.8 ± 1.5 | 25.3 ± 1.3 | 55 ± 17.3 | 32.5 ± 2.8 | 48.8 ± 0.5 | 27.8 ± 1.7 | 48.5 ± 4.3 | – | – | – | – | – | – | – | – | – | – | – | –
COC(=O)C(C(=O)/C=C/c1ccc(O)cc1)C(=O)/C=C/c1ccc(O)cc1 [Compound 5, 1,7-Bis(4-hydroxyphenyl)-4-methoxycarbonylhepta-1E,6E-dien-3,5-dione] | 76.3 ± 6.5 | 20 ± 2 | 23.8 ± 0.9 | 43.3 ± 4.4 | 28.3 ± 1 | 57.5 ± 4.6 | 5.3 ± 0.3 | 40 ± 8.4 | – | – | – | – | – | – | – | – | – | – | – | 26.7 ± 1.7
c1cnc2c(c1)ccc1cccnc12 [1,10-Phen, 1,10-phenanthroline, reference compound] | 42 ± 1.1 | 31.3 ± 0.5 | 73.8 ± 1 | 45 ± 12.6 | 77 ± 3.2 | 197 ± 8.8 | 29.5 ± 1.3 | 43.8 ± 4.2 | – | – | – | – | – | – | – | – | – | – | – | 50 ± 10.4
